Results published in patent publication US4060527A, “Pyrido[2,3-c]-acridine-1-hydroxy-2-carboxylic acid derivatives” (Fuji Chemical Industries, Ltd., priority 1975, dated 1977).
Converted amounts (≈) assume the structure as drawn. Like-named read-outs stand apart in the source and are kept apart here.

Tests used:
[1] = Acute toxicity LD50 on mouse; conditions: in vivo
Staphylococcus aureus [2] = assay: Antibacterial activity (MIC) against Staphylococcus aureus as Gram-positive bacterium; type: cell-based; conditions: for MBC: Table 1, bacteriocidal, read-out: Staphylococcus aureus bacteriocidal action; for MIC: Table 1, bacteriostatic, read-out: Staphylococcus aureus bacteriostatic action (MIC)
Staphylococcus aureus [3] = assay: as above; type: cell-based; conditions: Staphylococcus aureus; Table 3, class symbols; read-out: Antibacterial Activity (MIC) Staph. aureus
Experimental: (§1) Some of the compounds of this invention were tested as to their antibacterial activity (MIC, mcg/ml) against Staph. aureus as Gram-positive bacterium and E. coli as Gram-negative bacterium. In the table, the antibacterial activity of 0.09 to 1.25 mcg/ml. is indicated as A1, and the antibacterial activity of more than 1.25 mcg/ml. and not more than 2.5 mcg/ml. is indicated as A2.

Escherichia coli [4] = assay: Antibacterial activity (MIC) against Escherichia coli as Gram-negative bacterium; type: cell-based; conditions: Escherichia coli; Table 3, class symbols; read-out: Antibacterial Activity (MIC) E. coli
Experimental: as §1

Escherichia coli [5] = assay: as above; type: cell-based; conditions: for MBC: Table 1, bacteriocidal, read-out: Escherichia coli bacteriocidal action; for MIC: Table 1, bacteriostatic, read-out: Escherichia coli bacteriostatic action (MIC)
in vivo = conditions: mouse
[6] = in vivo; cited from earlier work

O=C(O)c1cnc2ccc3cc4ccccc4nc3c2c1O [Compound F-631]
LD50 ([1]; sc): > 3000 mg/kg | MBC (Staphylococcus aureus [2]): 1.25 µg/mL (≈ 4.31 µM) | MIC (Staphylococcus aureus [2]): 1.25 µg/mL (≈ 4.31 µM) | MIC (Staphylococcus aureus [3]): 0.09 to 1.25 µg/mL (≈ 0.31 to 4.31 µM) | MIC (Escherichia coli [4]): 0.09 to 1.25 µg/mL (≈ 0.31 to 4.31 µM) | MBC (Escherichia coli [5]): 1.25 µg/mL (≈ 4.31 µM) | MIC (Escherichia coli [5]): 1.25 µg/mL (≈ 4.31 µM) | LD50 (in vivo; iv): 230 mg/kg | LD50 (in vivo; po): > 5000 mg/kg

Cc1cc2cc3ccccc3nc2c2c(O)c(C(=O)O)cnc12 [Compound F-632]
LD50 ([1]; sc): > 3000 mg/kg | MBC (Staphylococcus aureus [2]): 2.5 µg/mL (≈ 8.22 µM) | MIC (Staphylococcus aureus [2]): 1.25 µg/mL (≈ 4.11 µM) | MIC (Staphylococcus aureus [3]): 0.09 to 1.25 µg/mL (≈ 0.296 to 4.11 µM) | MIC (Escherichia coli [4]): 0.09 to 1.25 µg/mL (≈ 0.296 to 4.11 µM) | MBC (Escherichia coli [5]): 1.25 µg/mL (≈ 4.11 µM) | MIC (Escherichia coli [5]): 0.62 µg/mL (≈ 2.04 µM) | LD50 (in vivo; iv): 253 mg/kg | LD50 (in vivo; po): > 5000 mg/kg

O=C(O)c1cnc2ccc3c(-c4ccccc4)c4ccccc4nc3c2c1O [Compound F-633]
LD50 ([1]; sc): > 3000 mg/kg | MBC (Staphylococcus aureus [2]): 1.25 µg/mL (≈ 3.41 µM) | MIC (Staphylococcus aureus [2]): 1.25 µg/mL (≈ 3.41 µM) | MIC (Staphylococcus aureus [3]): 0.09 to 1.25 µg/mL (≈ 0.246 to 3.41 µM) | MIC (Escherichia coli [4]): 0.09 to 1.25 µg/mL (≈ 0.246 to 3.41 µM) | MBC (Escherichia coli [5]): 1.25 µg/mL (≈ 3.41 µM) | MIC (Escherichia coli [5]): 1.25 µg/mL (≈ 3.41 µM) | LD50 (in vivo; iv): 245 mg/kg | LD50 (in vivo; po): > 5000 mg/kg

CCCCc1c2ccccc2nc2c1ccc1ncc(C(=O)O)c(O)c12 [Compound F-634]
LD50 ([1]; sc): > 3000 mg/kg | MBC (Staphylococcus aureus [2]): 0.25 µg/mL (≈ 0.722 µM) | MIC (Staphylococcus aureus [2]): 0.25 µg/mL (≈ 0.722 µM) | MIC (Staphylococcus aureus [3]): 0.09 to 1.25 µg/mL (≈ 0.26 to 3.61 µM) | MIC (Escherichia coli [4]): 0.09 to 1.25 µg/mL (≈ 0.26 to 3.61 µM) | MBC (Escherichia coli [5]): 0.62 µg/mL (≈ 1.79 µM) | MIC (Escherichia coli [5]): 0.62 µg/mL (≈ 1.79 µM) | LD50 (in vivo; iv): 215 mg/kg | LD50 (in vivo; po): > 5000 mg/kg

CCc1c2ccccc2nc2c1ccc1ncc(C(=O)O)c(O)c12 [Compound F-635]
LD50 ([1]; sc): > 3000 mg/kg | MBC (Staphylococcus aureus [2]): 0.62 µg/mL (≈ 1.95 µM) | MIC (Staphylococcus aureus [2]): 0.62 µg/mL (≈ 1.95 µM) | MIC (Staphylococcus aureus [3]): 0.09 to 1.25 µg/mL (≈ 0.283 to 3.93 µM) | MIC (Escherichia coli [4]): 0.09 to 1.25 µg/mL (≈ 0.283 to 3.93 µM) | MBC (Escherichia coli [5]): 1.25 µg/mL (≈ 3.93 µM) | MIC (Escherichia coli [5]): 1.25 µg/mL (≈ 3.93 µM) | LD50 (in vivo; iv): 186 mg/kg | LD50 (in vivo; po): > 5000 mg/kg

Cc1c2ccccc2nc2c1ccc1ncc(C(=O)O)c(O)c12 [Compound F-636]
LD50 ([1]; sc): > 3000 mg/kg | MBC (Staphylococcus aureus [2]): 1.25 µg/mL (≈ 4.11 µM) | MIC (Staphylococcus aureus [2]): 1.25 µg/mL (≈ 4.11 µM) | MIC (Staphylococcus aureus [3]): 0.09 to 1.25 µg/mL (≈ 0.296 to 4.11 µM) | MIC (Escherichia coli [4]): 0.09 to 1.25 µg/mL (≈ 0.296 to 4.11 µM) | MBC (Escherichia coli [5]): 2.5 µg/mL (≈ 8.22 µM) | MIC (Escherichia coli [5]): 1.25 µg/mL (≈ 4.11 µM) | LD50 (in vivo; iv): 235 mg/kg | LD50 (in vivo; po): > 5000 mg/kg

Cc1ccc2nc3c(ccc4ncc(C(=O)O)c(O)c43)cc2c1 [Compound F-637]
LD50 ([1]; sc): > 3000 mg/kg | MBC (Staphylococcus aureus [2]): 2.5 µg/mL (≈ 8.22 µM) | MIC (Staphylococcus aureus [2]): 1.25 µg/mL (≈ 4.11 µM) | MIC (Staphylococcus aureus [3]): 0.09 to 1.25 µg/mL (≈ 0.296 to 4.11 µM) | MIC (Escherichia coli [4]): 0.09 to 1.25 µg/mL (≈ 0.296 to 4.11 µM) | MBC (Escherichia coli [5]): 1.25 µg/mL (≈ 4.11 µM) | MIC (Escherichia coli [5]): 0.62 µg/mL (≈ 2.04 µM) | LD50 (in vivo; iv): 256 mg/kg | LD50 (in vivo; po): > 5000 mg/kg

O=C(O)c1cnc2ccc3cc4cccc(O)c4nc3c2c1O [Compound F-932, Pyrido[2,3-c]-1,11-dihydroxy-2-carboxylic acid]
MIC (Staphylococcus aureus [3]): 0.09 to 1.25 µg/mL (≈ 0.294 to 4.08 µM) | MIC (Escherichia coli [4]): 0.09 to 1.25 µg/mL (≈ 0.294 to 4.08 µM)

O=C(O)c1ccc2nc3c(ccc4ncc(C(=O)O)c(O)c43)cc2c1 [Compound F-935, Pyrido[2,3-c]-1-hydroxy-2,9-dicarboxylic acid]
MIC (Staphylococcus aureus [3]): 1.25 to 2.5 µg/mL (≈ 3.74 to 7.48 µM) | MIC (Escherichia coli [4]): 1.25 to 2.5 µg/mL (≈ 3.74 to 7.48 µM)

CCn1cc(C(=O)O)c(=O)c2ccc(C)nc21 [Nalidixic acid, reference compound]
LD50 ([1]; iv): 176 mg/kg | LD50 ([1]; po): 3300 mg/kg | LD50 ([1]; sc): 500 mg/kg | MIC (Staphylococcus aureus [2]): 125 µg/mL (≈ 538 µM) | MBC (Escherichia coli [5]): 6.25 µg/mL (≈ 26.9 µM) | MIC (Escherichia coli [5]): 6.25 µg/mL (≈ 26.9 µM)

acriflavin
toxicity [6]: fairly high toxicity, and exhibit high toxicity in internal administration
